Measured values from patent US7714014B2, “Targeting GLI proteins in human cancer by small molecules” (The Regents of the University of California, priority 2005, dated 2010).

Key:
[1] = system: human nasopharyngeal cancer cell lines HNE1 and HONE1; experiment: Cell survival assay (crystal violet); assay type: cell-based; conditions: for cell killing: 50 μM
Protocol: (§1) Typically, the small molecule compounds of the present invention were dissolved in DMSO at a concentration of 30 mM. The small molecule compounds were then tested under cell culture conditions at different concentrations ranging from 0, 10, 30, 50, to 100 uM. To determine cell survival after treatment, the cells were incubated with the small molecule compounds in 6-well plates for about 3 days. After removal of the cell culture medium, 1-ml of 0.5% crystal violet solution (prepared in 20% ethanol and 20% methanol) was added to stain the cells for 5 min. Then the crystal violet solution was rinsed clean with tap water. Cell survival was estimated based on the density of crystal stained plates.
The cell-based cytotoxicity assay described herein was used to determine the effect of small molecule compounds FN1-5 and FN1-8 in the human nasopharyngeal cancer cell lines HNE1 and HONE1. Viability of these cells was analyzed after treatment with 10, 30 and 50 μM FN1-5 or FN1-8.

[2] = system: hedgehog pathway in melanoma cell line LOX, colon cancer cell line SW480 and primary cultured human mesothelioma cells; experiment: Semi-quantitative RT-PCR of Hedgehog pathway genes; assay type: cell-based; conditions: data not shown
Protocol: Total RNA from cell lines or tissue samples was isolated using Qiagen RNeasy Mini Kit (Valencia, Calif.). RT-PCR was performed in GeneAmp PCR system 2700 (Applied Biosystems, Foster City, Calif.) using One-step RT-PCR Kit from Invitrogen Life Technologies (Carlsbad, Calif.). Primers for RT-PCR were obtained from Operon Technologies Inc. (Alameda, Calif.). Primer sequences for amplifying different genes in Hedgehog and Wnt signaling pathways are listed in the table below (Table 1; F, forward primer; R, reverse primer). The expected size of the PCR product is indicated for each primer pair. GAPDH was used as internal control.

[3] = system: human Wnt2 promoter in NSCLC cell line A549; experiment: Wnt2 promoter-luciferase reporter assay; assay type: cell-based; conditions: for Wnt2 promoter activity: A549, 30 μM, 18-24 hours
Protocol: One day before transfection, cells (1×10^5) were plated in 12-well plates with growth medium without antibiotics. When cells reached 80-90% of confluence they were co-transfected using 0.5 μg of each promoter construct in pGL3Basic vector and 0.025 μg pRL-TK Vector (Promega; Madison, Wis.) containing Renilla Luciferase as an internal control for the transformation efficiency. Lipofectamine 2000™ (Invitrogen Life Technologies) was used to mediate transfection for about 6 hours. Then the medium was replaced with fresh medium containing various small molecule compounds at a concentration of 30 μM, and the resulting cells were cultured for an additional 18-24 hours and subjected to luciferase assay. Briefly, cells were lysed in a lysis buffer and Firefly and Renilla Luciferase activities in cells of each well, were measured using Dual-Luciferase Assay System (Promega) and an illuminometer. The measured luciferase activities were normalized to pRL-TK Vector activity and were given relative to the basal activity of empty pGL3-Basic Vector, which was set to unity. The data shown represent mean values (±S.D.). All measurements were performed in triplicate and repeated in at least three independent experiments. The human Wnt-2 promoter-luciferase construct, the human SOCS3 promoter-Luciferase construct and the human Gremlin promoter-luciferase construct were cloned and characterized in the laboratory of Dr. Jablons at the University of California, San Francisco (San Francisco, Calif.; He et al., Biochem Biophy Res Comm, 2003; and unpublished data). The 6GLI-TKO-luciferase construct (containing 6 repeats of consensus GLI DNA binding sequence) was kindly provided by Dr. Matthias Hebrok's laboratory at the University of California, San Francisco (San Francisco, Calif.).
To examine the specificity of the small molecule compounds of the invention, the compounds were tested for regulate the expression of Gli down-stream target genes. […] The human Wnt2 promoter was cloned and found to contain putative Gli-DNA binding sites within its promoter region (data not shown). […]

[4] = system: human esophageal cancer cell lines SEG-1, TE-7, BIC-1, and OE21; experiment: Cell survival assay (crystal violet); assay type: cell-based; conditions: for cell killing: 50 μM
Protocol: as §1
The cell-based cytotoxicity assay described herein was used to determine the effect of small molecule compounds FN1-5 and FN1-8 in the human esophageal cancer cell lines SEG-1, TE-7, BIC-1, and OE21. Viability of these cells was analyzed after treatment with 10, 30 and 50 μM FN1-5 or FN1-8.

[5] = system: L3.6s1 (pancreatic cancer); experiment: Apoptosis analysis (Annexin V FITC, flow cytometry); assay type: cell-based, human; conditions: 3 days
Protocol: (§2) Apoptosis was analyzed by using an Annexin V FITC Apoptosis Detection Kit (Biosource, Camarillo, Calif.), according to the manufacturer's protocol. After treatment with different small molecule compounds at various concentrations for about 3 days, cells were harvested by trypsinization, stained and immediately analyzed by flow cytometry (FACScan; Decton Dickinson, Franklin Lake, N.J.). Early apoptotic cells with exposed phosphatidylserine but intact cell membranes will bind to Annexin V-FITC, but not propidium iodide (PI). Cells in necrotic or late apoptotic stages will be labeled with both Annexin V-FITC and PI. “% apoptotic cells” or “% apoptosis” refers to the combined early and late apoptotic cells.
(§3) Flow cytometry was also used to examine apoptosis induced by molecule compounds FN1-5 and FN1-8 in the human pancreatic cancer cell lines L3.6sl, Panc4.21, BxPC3, and CFPAC-1 cells. […] For example, app.

[6] = system: BxPC3 (pancreatic cancer); experiment: as above; assay type: cell-based, human; conditions: 3 days
Protocol: as §2, §3

[7] = system: Panc4.21 (pancreatic cancer); experiment: as above; assay type: cell-based, human; conditions: 3 days
Protocol: as §2, §3

[8] = system: CFPAC-1 (pancreatic cancer); experiment: as above; assay type: cell-based, human; conditions: 3 days
Protocol: as §2, §3

melanoma cell line LOX = experiment: Cell survival assay (crystal violet); assay type: cell-based, human; conditions: for cell killing effect: 3 days
Protocol: as §1
The effect of small molecule compounds FN1-5, FN1-8, FN1-7, FN1-9U, and FN1-9S was tested using a cytotoxicity assay and the melanoma cell line LOX. LOX cells were plated in 6-well plates and incubated with 100 μM of each compound (stocks were dissolved in DMSO at 30 mM) for 3 days, as described herein. […] Live cells were stained by 0.5% crystal violet.
Cell killing was also tested using human melanoma cell line LOX and different doses of the small molecule compounds FN1-5 and FN1-8. LOX cells were plated in 6-well plates and incubated with 10, 30, and 50 μM of each compound for 3 days, as described herein.

Structure (SMILES): O=C(NCCc1ccc(O)cc1)C1C(c2ccccc2)=NN(c2ccccc2)C1c1ccccc1 (stereo not shown) [FN1-8, N-(2-(4-Hydroxyphenyl)ethyl)-1,3,5-triphenyl-4,5-dihydro-pyrazole-4-carboxyamide]
- cell killing potency compared with FN1-5 [1]: more potent
- cell killing [1]: dramatic cell killing
- modulation of hedgehog pathway (RT-PCR) [2]: modulate the hedgehog pathway
- Wnt2 promoter activity [3]: down-regulate Wnt2 promoter activity dramatically
- Wnt2 expression (Wnt2 promoter-luciferase reporter activity assay) ([3]; after FN1-8 treatment, data not shown): down-regulated
- cell killing potency compared with FN1-5 [4]: more potent
- cell killing [4]: dramatic cell killing
- % of apoptotic cells ([5]; L3.6s1, 10 μM): 12.8%
- % of apoptotic cells ([5]; L3.6s1, 30 μM): 25.1%
- % of apoptotic cells ([5]; L3.6s1, 50 μM): 45.7%
- % of apoptotic cells ([6]; BxPC3, 10 μM): 11.4%
- % of apoptotic cells ([6]; BxPC3, 30 μM): 20.4%
- % of apoptotic cells ([6]; BxPC3, 50 μM): 77.4%
- % of apoptotic cells ([7]; Panc4.21, 10 μM): 11.2%
- % of apoptotic cells ([7]; Panc4.21, 30 μM): 10.6%
- % of apoptotic cells ([7]; Panc4.21, 50 μM): 23.4%
- % of apoptotic cells ([8]; CFPAC-1, 10 μM): 15.4%
- % of apoptotic cells ([8]; CFPAC-1, 30 μM): 15.0%
- % of apoptotic cells ([8]; CFPAC-1, 50 μM): 19.8%
- cell killing effect (melanoma cell line LOX; 50 μM): Dramatic cell killing effect
- cell killing effect (melanoma cell line LOX; 100 μM): dramatic cell killing effect
- cell killing potency compared with FN1-5 (melanoma cell line LOX; compared at 30 μM): more potent than FN1-5

Structure (SMILES): O=C(NCCCCCO)C1C(c2ccccc2)=NN(c2ccccc2)C1c1ccccc1 (stereo not shown) [FN1-5, N-(5-Hydroxypentyl)-1,3,5-triphenyl-4,5-dihydro-pyrazole-4-carboxyamide]
- cell killing [1]: dramatic cell killing
- modulation of hedgehog pathway (RT-PCR) [2]: modulate the hedgehog pathway
- Wnt2 promoter activity [3]: down-regulate Wnt2 promoter activity dramatically
- cell killing [4]: dramatic cell killing
- % of apoptotic cells ([5]; L3.6s1, 30 μM): 27.5%
- % of apoptotic cells ([5]; L3.6s1, 50 μM): 44.8%
- % of apoptotic cells ([6]; BxPC3, 30 μM): 11.2%
- % of apoptotic cells ([6]; BxPC3, 50 μM): 30.0%
- % of apoptotic cells ([7]; Panc4.21, 30 μM): 9.3%
- % of apoptotic cells ([7]; Panc4.21, 50 μM): 10.3%
- apoptosis induction ([7]; Panc4.21, 30 and 50 μM): did not seem to induce apoptosis
- % of apoptotic cells ([8]; CFPAC-1, 30 μM): 17.4%
- % of apoptotic cells ([8]; CFPAC-1, 50 μM): 30.6%
- cell killing effect (melanoma cell line LOX; 50 μM): Dramatic cell killing effect
- cell killing effect (melanoma cell line LOX; 100 μM): dramatic cell killing effect
